Laboratory results: patent publication US20080009418A1, “Selective Inhibitors” (Alchemia LTD., priority 2004, published 2008)

Assays:
Human μ-opioid (MOP) = biological target: T1, Human μ-opioid (MOP) (Homo sapiens, UniProt P35372); test: Radioligand binding, human μ-opioid (MOP) membranes, FlashPlate, [3H]-Naloxone; conditions: compound at 10 μM; [3H]-Naloxone
T1 construct: purchased Perkin Elmer Biosignal
Outline: (§1)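 Cloned human receptor membranes were coated onto FlashPlate wells and incubated with radioligand and compound (added from a 0.5 mM DMSO daughter plate) for 1 hour at room temperature in the dark. Scintillation counting gave percent inhibition, with DMSO defining total and reference ligand defining non-specific binding.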

Human Melanocortin (MC4) = biological target: T2, Human Melanocortin (MC4) (Homo sapiens, UniProt P32245); test: Radioligand binding, human melanocortin MC4 membranes, FlashPlate, [125I]-NDP-αMSH; conditions: compound at 10 μM; [125I]-NDP-αMSH
T2 construct: purchased Perkin Elmer Biosignal
Outline: as §1

Human opioid (ORL1) = biological target: T3, Human opioid (ORL1) (Homo sapiens, UniProt P41146); test: Radioligand binding, human opioid ORL1 membranes, FlashPlate, [125I]-Nociceptin; conditions: compound at 10 μM; [125I]-Nociceptin
T3 construct: purchased Perkin Elmer Biosignal
Outline: as §1

[1] = biological target: T4, Human melanin-concentrating hormone (MCH1) (Homo sapiens, UniProt Q99705); test: Radioligand binding, human melanin-concentrating hormone MCH1 membranes, FlashPlate, [125I]-S36057; conditions: compound at 10 μM; [125I]-S36057
T4 construct: purchased Perkin Elmer Biosignal
Outline: as §1

Human melanocortin (MC5) = biological target: T5, Human melanocortin (MC5) (Homo sapiens, UniProt P33032); test: Radioligand binding, human melanocortin MC5 membranes, FlashPlate, [125I]-NDP-αMSH; conditions: compound at 10 μM; [125I]-NDP-αMSH
T5 construct: purchased Perkin Elmer Biosignal
Outline: as §1

Human neurokinin (NK1) = biological target: T6, Human neurokinin (NK1) (Homo sapiens, UniProt P25103); test: Radioligand binding, human neurokinin NK1 membranes, filtration, [125I]-Substance P; conditions: compound at 10 μM; [125I]-Substance P
T6 construct: purchased Perkin Elmer Biosignal
Outline: (§2)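 Percent inhibition of radioligand binding measured on recombinant human membranes: NK1 with [125I]-Substance P, KOP with [3H]-Diprenorphine. Incubation 1 h at room temperature, then harvest onto 0.3% PEI-soaked filters, cold Tris-HCl pH 7.4 washes and scintillation counting; non-specific binding from reference ligand wells.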

Human δ-opioid (DOP) = biological target: T7, Human δ-opioid (DOP) (Homo sapiens, UniProt P41143); test: Radioligand binding, human δ-opioid (DOP) membranes, FlashPlate, [3H]-Bremazocine; conditions: compound at 10 μM; [3H]-Bremazocine
T7 construct: purchased Perkin Elmer Biosignal
Outline: as §1

[2] = biological target: T8, Human neuropeptide Y (NPY-Y1) (Homo sapiens, UniProt P25929); test: Radioligand binding, human neuropeptide Y NPY-Y1 membranes, FlashPlate, [125I]-PYY; conditions: compound at 10 μM; [125I]-PYY
T8 construct: purchased Perkin Elmer Biosignal
T8 sequence (P25929 1-384): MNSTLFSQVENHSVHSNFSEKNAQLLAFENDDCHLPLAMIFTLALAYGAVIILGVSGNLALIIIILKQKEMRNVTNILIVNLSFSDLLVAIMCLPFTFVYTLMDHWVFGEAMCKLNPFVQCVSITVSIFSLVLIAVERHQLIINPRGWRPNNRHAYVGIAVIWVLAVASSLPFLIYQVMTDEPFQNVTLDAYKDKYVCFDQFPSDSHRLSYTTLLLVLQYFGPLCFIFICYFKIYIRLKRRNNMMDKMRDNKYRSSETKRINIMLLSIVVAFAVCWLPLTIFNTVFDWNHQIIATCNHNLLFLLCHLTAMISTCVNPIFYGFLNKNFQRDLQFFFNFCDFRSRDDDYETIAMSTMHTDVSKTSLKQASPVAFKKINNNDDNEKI
Outline: as §1

Mouse urotensin (mUR2) = biological target: T9, Mouse urotensin (mUR2) (Mus musculus, UniProt Q8VIH9); test: Radioligand binding, mouse urotensin mUR2 membranes, FlashPlate, [125I]-Urotensin II; conditions: compound at 10 μM; [125I]-Urotensin II
T9 construct: purchased Perkin Elmer Biosignal
T9 sequence (Q8VIH9 1-385): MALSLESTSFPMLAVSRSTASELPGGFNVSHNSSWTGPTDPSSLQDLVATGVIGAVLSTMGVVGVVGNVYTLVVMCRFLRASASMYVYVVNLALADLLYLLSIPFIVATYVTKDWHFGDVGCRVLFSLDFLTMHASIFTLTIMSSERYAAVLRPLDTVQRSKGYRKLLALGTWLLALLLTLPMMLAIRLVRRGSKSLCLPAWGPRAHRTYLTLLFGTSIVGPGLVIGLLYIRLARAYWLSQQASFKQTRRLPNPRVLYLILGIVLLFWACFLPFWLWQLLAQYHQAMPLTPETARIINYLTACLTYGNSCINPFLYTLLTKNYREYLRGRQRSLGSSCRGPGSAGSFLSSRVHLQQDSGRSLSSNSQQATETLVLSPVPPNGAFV
Outline: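 Cloned mouse urotensin (mUR2) receptor membranes from Perkin Elmer Biosignal were immobilized in FlashPlate microplates using a proprietary coating. Each well got 19.5 μl buffer, then 0.5 μl of DMSO, reference ligand, or compound. Adding 5 μl of [125I]-Urotensin II, diluted to 5× final concentration in binding buffer, started binding. Plates were sealed with TopSeal-A and incubated 1 hour at room temperature in the dark. Wells were counted for 30 seconds each on a TopCount after a 60-second delay, and percentage inhibition was calculated.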

Human Melanocortin (MC3) = biological target: T10, Human Melanocortin (MC3) (Homo sapiens, UniProt P41968); test: Radioligand binding, human melanocortin MC3 membranes, FlashPlate, [125I]-NDP-αMSH; conditions: compound at 10 μM; [125I]-NDP-αMSH
T10 construct: purchased Perkin Elmer Biosignal
Outline: as §1

Human κ-Opioid (KOP) = biological target: T11, Human κ-Opioid (KOP) (Homo sapiens, UniProt P41145); test: Radioligand binding, human κ-opioid (KOP) membranes, filtration, [3H]-Diprenorphine; conditions: compound at 10 μM; [3H]-Diprenorphine
T11 construct: purchased Perkin Elmer Biosignal
Outline: as §2

T5 sequence (P33032 whole entry): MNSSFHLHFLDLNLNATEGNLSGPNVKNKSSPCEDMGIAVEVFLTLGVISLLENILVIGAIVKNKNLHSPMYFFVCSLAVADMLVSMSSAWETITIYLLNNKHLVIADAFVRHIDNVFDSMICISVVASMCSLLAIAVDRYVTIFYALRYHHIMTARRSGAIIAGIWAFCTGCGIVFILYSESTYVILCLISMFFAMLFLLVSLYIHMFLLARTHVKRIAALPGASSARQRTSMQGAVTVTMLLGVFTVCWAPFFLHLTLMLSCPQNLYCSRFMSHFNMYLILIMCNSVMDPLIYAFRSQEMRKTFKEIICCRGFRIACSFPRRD
T4 sequence (Q99705 whole entry): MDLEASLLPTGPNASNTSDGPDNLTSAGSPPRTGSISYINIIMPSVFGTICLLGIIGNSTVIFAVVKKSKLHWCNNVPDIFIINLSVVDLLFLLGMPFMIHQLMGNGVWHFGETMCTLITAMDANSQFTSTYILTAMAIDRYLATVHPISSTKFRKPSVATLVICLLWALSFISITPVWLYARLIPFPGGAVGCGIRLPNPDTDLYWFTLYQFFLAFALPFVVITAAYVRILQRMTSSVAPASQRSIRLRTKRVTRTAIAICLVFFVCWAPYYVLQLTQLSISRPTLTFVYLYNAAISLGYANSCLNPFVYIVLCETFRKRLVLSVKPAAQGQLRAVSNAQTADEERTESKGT
T7 sequence (P41143 whole entry): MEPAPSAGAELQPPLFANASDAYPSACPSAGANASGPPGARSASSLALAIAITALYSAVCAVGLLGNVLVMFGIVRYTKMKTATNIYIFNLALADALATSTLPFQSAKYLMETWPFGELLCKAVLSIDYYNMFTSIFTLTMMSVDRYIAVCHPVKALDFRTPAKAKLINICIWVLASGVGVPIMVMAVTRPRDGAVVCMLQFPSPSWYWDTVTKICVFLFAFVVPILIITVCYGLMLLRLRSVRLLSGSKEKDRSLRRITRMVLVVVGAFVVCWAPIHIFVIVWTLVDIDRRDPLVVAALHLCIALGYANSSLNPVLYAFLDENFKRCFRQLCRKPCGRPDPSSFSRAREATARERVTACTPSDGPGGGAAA
T6 sequence (P25103 whole entry): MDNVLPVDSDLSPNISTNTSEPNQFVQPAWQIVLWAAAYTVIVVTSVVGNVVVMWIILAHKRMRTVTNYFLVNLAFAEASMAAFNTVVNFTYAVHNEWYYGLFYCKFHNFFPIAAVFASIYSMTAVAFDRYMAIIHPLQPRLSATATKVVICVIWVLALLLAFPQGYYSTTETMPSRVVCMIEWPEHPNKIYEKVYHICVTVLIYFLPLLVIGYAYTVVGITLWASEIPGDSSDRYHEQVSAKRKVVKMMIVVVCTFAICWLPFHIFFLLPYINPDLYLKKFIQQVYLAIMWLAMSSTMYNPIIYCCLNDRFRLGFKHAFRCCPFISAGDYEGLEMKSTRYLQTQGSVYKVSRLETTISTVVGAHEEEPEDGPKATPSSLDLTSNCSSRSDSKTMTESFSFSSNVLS
T11 sequence (P41145 whole entry): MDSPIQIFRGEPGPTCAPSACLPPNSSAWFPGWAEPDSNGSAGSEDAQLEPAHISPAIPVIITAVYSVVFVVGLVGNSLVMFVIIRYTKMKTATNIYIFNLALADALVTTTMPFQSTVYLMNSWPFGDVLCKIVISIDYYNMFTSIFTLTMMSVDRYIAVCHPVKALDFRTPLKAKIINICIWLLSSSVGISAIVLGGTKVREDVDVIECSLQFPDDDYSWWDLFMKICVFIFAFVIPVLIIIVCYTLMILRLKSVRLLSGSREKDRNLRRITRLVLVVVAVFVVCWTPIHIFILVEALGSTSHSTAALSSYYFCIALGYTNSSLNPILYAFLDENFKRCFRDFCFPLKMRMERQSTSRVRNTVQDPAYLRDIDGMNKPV
T1 sequence (P35372 whole entry): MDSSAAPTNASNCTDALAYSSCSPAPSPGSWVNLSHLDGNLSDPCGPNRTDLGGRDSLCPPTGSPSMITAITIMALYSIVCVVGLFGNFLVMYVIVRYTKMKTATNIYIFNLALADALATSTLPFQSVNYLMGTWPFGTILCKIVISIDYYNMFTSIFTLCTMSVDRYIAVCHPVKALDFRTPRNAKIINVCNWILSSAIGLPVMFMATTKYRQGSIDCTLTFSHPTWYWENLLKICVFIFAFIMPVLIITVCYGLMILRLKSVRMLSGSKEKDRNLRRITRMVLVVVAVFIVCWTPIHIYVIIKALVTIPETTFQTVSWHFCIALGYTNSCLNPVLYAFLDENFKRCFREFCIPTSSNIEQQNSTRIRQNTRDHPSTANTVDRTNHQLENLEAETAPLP
T10 sequence (P41968 whole entry): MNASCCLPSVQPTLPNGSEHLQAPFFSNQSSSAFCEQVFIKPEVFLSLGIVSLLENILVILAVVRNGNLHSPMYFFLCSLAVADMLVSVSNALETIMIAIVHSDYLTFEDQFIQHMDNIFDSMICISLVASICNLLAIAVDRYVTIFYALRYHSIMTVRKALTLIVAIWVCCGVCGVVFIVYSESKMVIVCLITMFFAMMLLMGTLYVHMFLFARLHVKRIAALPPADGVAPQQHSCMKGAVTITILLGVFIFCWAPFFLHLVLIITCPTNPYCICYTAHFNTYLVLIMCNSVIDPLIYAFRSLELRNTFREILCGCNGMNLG
T3 sequence (P41146 whole entry): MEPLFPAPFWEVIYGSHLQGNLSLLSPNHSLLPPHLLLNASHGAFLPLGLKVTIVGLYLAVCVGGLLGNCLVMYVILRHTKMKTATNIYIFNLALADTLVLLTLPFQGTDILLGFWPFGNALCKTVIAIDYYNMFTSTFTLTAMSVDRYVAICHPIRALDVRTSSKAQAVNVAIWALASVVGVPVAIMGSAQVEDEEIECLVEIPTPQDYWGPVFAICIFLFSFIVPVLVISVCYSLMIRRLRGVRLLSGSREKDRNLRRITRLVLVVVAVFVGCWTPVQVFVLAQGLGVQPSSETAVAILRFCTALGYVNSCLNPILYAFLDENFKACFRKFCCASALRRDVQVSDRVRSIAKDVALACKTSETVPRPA
T2 sequence (P32245 whole entry): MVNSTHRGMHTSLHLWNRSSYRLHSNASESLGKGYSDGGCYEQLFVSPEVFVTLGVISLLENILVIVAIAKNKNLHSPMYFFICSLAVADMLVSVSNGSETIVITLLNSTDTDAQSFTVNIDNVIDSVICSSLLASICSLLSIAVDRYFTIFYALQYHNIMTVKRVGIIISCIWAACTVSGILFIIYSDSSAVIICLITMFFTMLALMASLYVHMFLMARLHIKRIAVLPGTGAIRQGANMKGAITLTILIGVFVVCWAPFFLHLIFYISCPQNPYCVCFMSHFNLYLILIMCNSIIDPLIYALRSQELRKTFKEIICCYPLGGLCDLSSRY

Compound | A7: inhibition of radioligand binding, human μ-opioid (MOP) (Human μ-opioid (MOP)) | A4: inhibition of radioligand binding, human melanocortin (MC4) (Human Melanocortin (MC4)) | A10: inhibition of radioligand binding, human opioid (ORL1) (Human opioid (ORL1)) | A6: inhibition of radioligand binding, human melanin-concentrating hormone (MCH1) [1] | A5: inhibition of radioligand binding, human melanocortin (MC5) (Human melanocortin (MC5)) | A8: inhibition of radioligand binding, human neurokinin (NK1) (Human neurokinin (NK1)) | A1: inhibition of radioligand binding, human δ-opioid (DOP) (Human δ-opioid (DOP)) | A9: inhibition of radioligand binding, human neuropeptide Y (NPY-Y1) [2] | A11: inhibition of radioligand binding, mouse urotensin (mUR2) (Mouse urotensin (mUR2)) | A3: inhibition of radioligand binding, human melanocortin (MC3) (Human Melanocortin (MC3)) | A2: inhibition of radioligand binding, human κ-opioid (KOP) (Human κ-Opioid (KOP))
CSC1O[C@H](COCc2ccc3ccccc3c2)[C@@H](O)[C@@H](OCc2ccc(-c3ccccc3)cc2)[C@H]1NC(=O)CNC(=N)N (stereo partly shown) [compound 296] | − (“−” indicates less than 50% inhibition at 10 μM) | − (“−” indicates less than 50% inhibition at 10 μM) | − (“−” indicates less than 50% inhibition at 10 μM) | − (“−” indicates less than 50% inhibition at 10 μM) | − (“−” indicates less than 50% inhibition at 10 μM) | + (“+” indicates greater than 50% inhibition at 10 μM) | − (“−” indicates less than 50% inhibition at 10 μM) | − (“−” indicates less than 50% inhibition at 10 μM) | − (“−” indicates less than 50% inhibition at 10 μM) | − (“−” indicates less than 50% inhibition at 10 μM) | − (“−” indicates less than 50% inhibition at 10 μM)
CSC1O[C@H](COCc2ccc3ccccc3c2)[C@@H](O)[C@@H](OCc2ccc(-c3ccccc3)cc2)[C@H]1NC(=O)CCN (stereo partly shown) [compound 297] | − (“−” indicates less than 50% inhibition at 10 μM) | − (“−” indicates less than 50% inhibition at 10 μM) | − (“−” indicates less than 50% inhibition at 10 μM) | − (“−” indicates less than 50% inhibition at 10 μM) | − (“−” indicates less than 50% inhibition at 10 μM) | + (“+” indicates greater than 50% inhibition at 10 μM) | − (“−” indicates less than 50% inhibition at 10 μM) | − (“−” indicates less than 50% inhibition at 10 μM) | − (“−” indicates less than 50% inhibition at 10 μM) | − (“−” indicates less than 50% inhibition at 10 μM) | − (“−” indicates less than 50% inhibition at 10 μM)
CSC1O[C@H](COCc2ccc3ccccc3c2)[C@@H](O)[C@@H](OCc2ccc(-c3ccccc3)cc2)[C@H]1NC(=O)CCNC(=N)N (stereo partly shown) [compound 298] | − (“−” indicates less than 50% inhibition at 10 μM) | − (“−” indicates less than 50% inhibition at 10 μM) | − (“−” indicates less than 50% inhibition at 10 μM) | − (“−” indicates less than 50% inhibition at 10 μM) | + (“+” indicates greater than 50% inhibition at 10 μM) | + (“+” indicates greater than 50% inhibition at 10 μM) | − (“−” indicates less than 50% inhibition at 10 μM) | − (“−” indicates less than 50% inhibition at 10 μM) | − (“−” indicates less than 50% inhibition at 10 μM) | − (“−” indicates less than 50% inhibition at 10 μM) | − (“−” indicates less than 50% inhibition at 10 μM)
CSC1O[C@H](COCc2ccc3ccccc3c2)[C@@H](O)[C@@H](OCc2ccc(-c3ccccc3)cc2)[C@H]1NC(=O)CCCN (stereo partly shown) [compound 299] | − (“−” indicates less than 50% inhibition at 10 μM) | + (“+” indicates greater than 50% inhibition at 10 μM) | − (“−” indicates less than 50% inhibition at 10 μM) | − (“−” indicates less than 50% inhibition at 10 μM) | − (“−” indicates less than 50% inhibition at 10 μM) | + (“+” indicates greater than 50% inhibition at 10 μM) | − (“−” indicates less than 50% inhibition at 10 μM) | − (“−” indicates less than 50% inhibition at 10 μM) | − (“−” indicates less than 50% inhibition at 10 μM) | − (“−” indicates less than 50% inhibition at 10 μM) | − (“−” indicates less than 50% inhibition at 10 μM)
CSC1O[C@H](COCc2ccc3ccccc3c2)[C@@H](O)[C@@H](OCc2ccc(-c3ccccc3)cc2)[C@H]1NC(=O)CCCNC(=N)N (stereo partly shown) [compound 300] | − (“−” indicates less than 50% inhibition at 10 μM) | − (“−” indicates less than 50% inhibition at 10 μM) | − (“−” indicates less than 50% inhibition at 10 μM) | − (“−” indicates less than 50% inhibition at 10 μM) | + (“+” indicates greater than 50% inhibition at 10 μM) | + (“+” indicates greater than 50% inhibition at 10 μM) | − (“−” indicates less than 50% inhibition at 10 μM) | − (“−” indicates less than 50% inhibition at 10 μM) | − (“−” indicates less than 50% inhibition at 10 μM) | − (“−” indicates less than 50% inhibition at 10 μM) | − (“−” indicates less than 50% inhibition at 10 μM)
